Structures can show the parent of a compound that is named as a salt.
Legend:
Format in all cases: functional, cell-based
HEp-2 = test: Cytotoxicity against Homo sapiens (human) Hep2 cells by SRB assay
IMR-32 = test: Cytotoxicity against Homo sapiens (human) IMR32 cells by SRB assay
MCF7 = test: Cytotoxicity against Homo sapiens (human) MCF7 cells by SRB assay
PC-3 = test: Cytotoxicity against Homo sapiens (human) PC3 cells by SRB assay
DU-145 = test: Cytotoxicity against Homo sapiens (human) DU145 cells by SRB assay
COLO 205 = test: Cytotoxicity against Homo sapiens (human) COLO205 cells by SRB assay

Row | SMILES | IC50 (HEp-2) | IC50 (IMR-32) | IC50 (MCF7) | IC50 (PC-3) | IC50 (DU-145) | IC50 (COLO 205)
1 | COC(=O)[C@H](CC(C)C)NC(=O)/C=C/C=C/c1ccc2c(c1)OCO2 | 43 µM | > 50 µM | 48 µM | > 50 µM | > 50 µM | 55 µM
2 | COC(=O)[C@H](Cc1cnc[nH]1)NC(=O)/C=C/C=C/c1ccc2c(c1)OCO2 | > 50 µM | > 50 µM | > 50 µM | > 50 µM | 21 µM | > 50 µM
3 | O=C(/C=C/C=C/c1ccc2c(c1)OCO2)N1CCCCC1 [PIPERINE] | 70 µM | 89 µM | 99 µM | > 50 µM | > 50 µM | 46 µM
4 | CC[C@H](C)[C@H](NC(=O)/C=C/C=C/c1ccc2c(c1)OCO2)C(=O)OC | > 50 µM | > 50 µM | 48 µM | > 50 µM | > 50 µM | > 50 µM
5 | COC(=O)[C@@H](NC(=O)/C=C/C=C/c1ccc2c(c1)OCO2)C(C)C | > 50 µM | > 50 µM | 51 µM | 49 µM | 44 µM | > 50 µM
6 | COC(=O)[C@H](NC(=O)/C=C/C=C/c1ccc2c(c1)OCO2)C(C)C | > 50 µM | > 50 µM | > 50 µM | > 50 µM | > 50 µM | 51 µM
7 | COc1cccc2c1C(=O)c1c(O)c3c(c(O)c1C2=O)C[C@@](O)(C(=O)CO)C[C@@H]3O[C@H]1C[C@H](N)[C@H](O)[C@H](C)O1 [DOXORUBICIN HYDROCHLORIDE] | – | 0.02 µM | 0.8 µM | – | – | –
8 | O=c1[nH]cc(F)c(=O)[nH]1 [FLUOROURACIL] | 2 µM | – | 2.9 µM | – | – | 2.9 µM
9 | COC(=O)[C@H](CO)NC(=O)/C=C/C=C/c1ccc2c(c1)OCO2 | > 50 µM | > 50 µM | > 50 µM | > 50 µM | > 50 µM | 36 µM
10 | CO[C@@]12[C@H](COC(N)=O)C3=C(C(=O)C(C)=C(N)C3=O)N1C[C@@H]1N[C@@H]12 [MITOMYCIN] | – | – | – | 1.4 µM | 1.8 µM | –
11 | COC(=O)C[C@H](NC(=O)/C=C/C=C/c1ccc2c(c1)OCO2)C(=O)OC | > 50 µM | > 50 µM | > 50 µM | > 50 µM | 46 µM | > 50 µM
12 | COC(=O)[C@H](C)NC(=O)/C=C/C=C/c1ccc2c(c1)OCO2 | > 50 µM | > 50 µM | > 50 µM | > 50 µM | 51 µM | > 50 µM
13 | COC(=O)CNC(=O)/C=C/C=C/c1ccc2c(c1)OCO2 | > 50 µM | 50 µM | 44 µM | 33 µM | 49 µM | > 50 µM

Source: ChEMBL document CHEMBL3046009, “Synthesis of piperineamino acid ester conjugates and study of their cytotoxic activities against human cancer cell lines” (Med Chem Res, 2012)
